Assay results reported in patent publication US9169254B2, “Spiroimidazolone derivative” (Chugai Seiyaku Kabushiki Kaisha, priority 2009, dated 2015).

What follows are molecules tested against T1, human PTH1 receptor (Homo sapiens, UniProt Q03431) (assay: In vitro cAMP signal activity in HKRK-B7 cells (LLC-PK1 cells overexpressing the human PTH1 receptor)). Settings: HKRK-B7 cells; compound at 1×10^−3 M; cAMP produced as percentage of that produced by hPTH(1-34) at 100 nM.
T1 sequence (Q03431 27-593): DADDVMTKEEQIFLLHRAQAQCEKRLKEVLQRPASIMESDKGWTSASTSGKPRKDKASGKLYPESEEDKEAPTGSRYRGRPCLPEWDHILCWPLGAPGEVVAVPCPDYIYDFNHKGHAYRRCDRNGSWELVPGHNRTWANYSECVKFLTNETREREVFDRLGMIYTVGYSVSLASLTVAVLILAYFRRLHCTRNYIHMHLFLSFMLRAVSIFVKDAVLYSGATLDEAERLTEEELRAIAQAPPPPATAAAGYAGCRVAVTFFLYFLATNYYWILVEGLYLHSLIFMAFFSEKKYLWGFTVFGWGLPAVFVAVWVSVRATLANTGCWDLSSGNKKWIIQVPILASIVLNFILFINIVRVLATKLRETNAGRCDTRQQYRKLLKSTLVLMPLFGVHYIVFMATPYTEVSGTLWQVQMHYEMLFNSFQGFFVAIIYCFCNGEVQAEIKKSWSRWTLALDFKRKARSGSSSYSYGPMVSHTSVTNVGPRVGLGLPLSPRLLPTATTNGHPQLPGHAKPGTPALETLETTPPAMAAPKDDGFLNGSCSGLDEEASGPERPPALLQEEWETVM
Type: cell-based

SMILES	cAMP production activity (%)
Cc1cc(C(=O)N2CCC(O)CC2)cc(C)c1/C=C/S(=O)(=O)N1CCC2(CC1)N=C(c1cccc(OCCCC(F)(F)C(F)(F)F)c1)NC2=O [Compound 1158, 8-{(E)-2-[4-(4-Hydroxy-piperidine-1-carbonyl)-2,6-dimethyl-phenyl]-ethenesulfonyl}-2-[3-(4,4,5,5,5-pentafluoro-pentyloxy)-phenyl]-1,3,8-triaza-spiro[4.5]dec-1-en-4-one]	103
Cc1cc(C(=O)N2CCC(O)CC2)cc(C)c1/C=C/[S@TB4](=O)(=O)N1CCC2(CC1)N=C(c1ccc(F)c(OC(F)(F)F)c1)NC2=O [Compound 1159, 2-(4-fluoro-3-trifluoromethoxy-phenyl)-8-{(E)-2-[4-(4-hydroxy-piperidine-1-carbonyl)-2,6-dimethyl-phenyl]-ethenesulfonyl}-1,3,8-triaza-spiro[4.5]dec-1-en-4-one]	87
Cc1cc(C(=O)N2CCC(O)CC2)cc(C)c1/C=C/[S@TB4](=O)(=O)N1CCC2(CC1)N=C(c1ccc3c(c1)OC(F)(F)O3)NC2=O [Compound 1160, 2-(2,2-difluoro-benzo[1,3]dioxol-5-yl)-8-{(E)-2-[4-(4-hydroxy-piperidine-1-carbonyl)-2,6-dimethyl-phenyl]-ethenesulfonyl}-1,3,8-triaza-spiro[4.5]dec-1-en-4-one]	84
Cc1cc(C(=O)N2CCC(CO)CC2)cc(C)c1/C=C/S(=O)(=O)N1CCC2(CC1)N=C(c1ccc(F)c(OC(F)(F)F)c1)NC2=O [Compound 1161, 2-(4-Fluoro-3-trifluoromethoxy-phenyl)-8-{(E)-2-[4-(4-hydroxymethyl-piperidine-1-carbonyl)-2,6-dimethyl-phenyl]-ethenesulfonyl}-1,3,8-triaza-spiro[4.5]dec-1-en-4-one]	84
Cc1cc(C(=O)N2CCC(CO)CC2)cc(C)c1/C=C/[S@TB4](=O)(=O)N1CCC2(CC1)N=C(c1ccc(F)c(C(F)(F)F)c1)NC2=O [Compound 1162, 2-(4-fluoro-3-trifluoromethyl-phenyl)-8-{(E)-2-[4-(4-hydroxymethyl-piperidine-1-carbonyl)-2,6-dimethyl-phenyl]-ethenesulfonyl}-1,3,8-triaza-spiro[4.5]dec-1-en-4-one]	112
Cc1cc(C(=O)N2CCC(C)(O)CC2)cc(C)c1/C=C/S(=O)(=O)N1CCC2(CC1)N=C(c1ccc3c(c1)OC(F)(F)O3)NC2=O [Compound 1163, 2-(2,2-Difluoro-benzo[1,3]dioxol-5-yl)-8-{(E)-2-[4-(4-hydroxy-4-methyl-piperidine-1-carbonyl)-2,6-dimethyl-phenyl]-ethenesulfonyl}-1,3,8-triaza-spiro[4.5]dec-1-en-4-one]	101
Cc1cc(OC[C@H](O)CO)cc(C)c1/C=C/S(=O)(=O)N1CCC2(CC1)N=C(c1ccc(F)c(OC(F)(F)F)c1)NC2=O [Compound 1164, 8-{(E)-2-[4-((R)-2,3-Dihydroxy-propoxy)-2,6-dimethyl-phenyl]-ethenesulfonyl}-2-(4-fluoro-3-trifluoromethoxy-phenyl)-1,3,8-triaza-spiro[4.5]dec-1-en-4-one]	4.7
Cc1cc(OC[C@H](O)CO)cc(C)c1/C=C/S(=O)(=O)N1CCC2(CC1)N=C(c1ccc3c(c1)OC(F)(F)O3)NC2=O [Compound 1165, 2-(2,2-difluoro-benzo[1,3]dioxol-5-yl)-8-{(E)-2-[4-((R)-2,3-dihydroxy-propoxy)-2,6-dimethyl-phenyl]-ethenesulfonyl}-1,3,8-triaza-spiro[4.5]dec-1-en-4-one]	4.3
Cc1cc(OCCC(O)CO)ccc1/C=C/S(=O)(=O)N1CCC2(CC1)N=C(c1ccc(F)c(OC(F)(F)F)c1)NC2=O (centres unmarked) [Compound 1166, 8-{(E)-2-[4-(3,4-Dihydroxy-butoxy)-2-methyl-phenyl]-ethenesulfonyl}-2-(4-fluoro-3-trifluoromethoxy-phenyl)-1,3,8-triaza-spiro[4.5]dec-1-en-4-one]	144
Cc1cc(OCCC(O)CO)ccc1/C=C/S(=O)(=O)N1CCC2(CC1)N=C(c1ccc3c(c1)OC(F)(F)O3)NC2=O (centres unmarked) [Compound 1167, 2-(2,2-difluoro-benzo[1,3]dioxol-5-yl)-8-{(E)-2-[4-(3,4-dihydroxy-butoxy)-2-methyl-phenyl]-ethenesulfonyl}-1,3,8-triaza-spiro[4.5]dec-1-en-4-one]	115
O=C(O)Cn1ccc2c(/C=C/S(=O)(=O)N3CCC4(CC3)N=C(C3CCCCC3)NC4=O)cccc21 [Compound 1168, {4-[(E)-2-(2-Cyclohexyl-4-oxo-1,3,8-triaza-spiro[4.5]dec-1-ene-8-sulfonyl)-vinyl]-indol-1-yl}-acetic acid]	27
Cc1cc(NC(=O)NCC(=O)O)ccc1/C=C/S(=O)(=O)N1CCC2(CC1)N=C(C1CCC(C)CC1)NC2=O (centres unmarked) [Compound 1169, [3-(3-methyl-4-{(E)-2-[2-(4-methyl-cyclohexyl)-4-oxo-1,3,8-triaza-spiro[4.5]dec-1-ene-8-sulfonyl]-vinyl}-phenyl)-ureido]-acetic acid]	50
Cc1cc(N(C)C(N)=O)cc(C)c1CCS(=O)(=O)N1CCC2(CC1)N=C(CCCCCCCCCCCC(=O)O)NC2=O [Compound 1170, 12-(8-{2-[2,6-dimethyl-4-(1-methyl-ureido)-phenyl]-ethanesulfonyl}-4-oxo-1,3,8-triaza-spiro[4.5]dec-1-en-2-yl)-dodecanoic acid]	24
Cc1cc(N(C)C(N)=O)cc(C)c1/C=C/S(=O)(=O)N1CCC2(CC1)N=C(CCCCCCCCCC(=O)O)NC2=O [Compound 1171, 10-(8-{(E)-2-[2,6-Dimethyl-4-(1-methyl-ureido)-phenyl]-ethenesulfonyl}-4-oxo-1,3,8-triaza-spiro[4.5]dec-1-en-2-yl)-decanoic acid]	28
Cc1cc(N(C)C(N)=O)cc(C)c1/C=C/S(=O)(=O)N1CCC2(CC1)N=C(CCCCCCCCCC(N)=O)NC2=O [Compound 1172, 10-(8-{(E)-2-[2,6-Dimethyl-4-(1-methyl-ureido)-phenyl]-ethenesulfonyl}-4-oxo-1,3,8-triaza-spiro[4.5]dec-1-en-2-yl)-decanoic amide]	73
Cc1cc(N(C)C(N)=O)cc(C)c1/C=C/S(=O)(=O)N1CCC2(CC1)N=C(CCCCCCCCCCCC(N)=O)NC2=O [Compound 1173, 12-(8-{(E)-2-[2,6-dimethyl-4-(1-methyl-ureido)-phenyl]-ethenesulfonyl}-4-oxo-1,3,8-triaza-spiro[4.5]dec-1-en-2-yl)-dodecanoic acid amide]	85
Cc1cc(N(C)C(N)=O)cc(C)c1CCS(=O)(=O)N1CCC2(CC1)N=C(CCCCCCCCCCCC(N)=O)NC2=O [Compound 1174, 12-(8-{2-[2,6-dimethyl-4-(1-methyl-ureido)-phenyl]-ethanesulfonyl}-4-oxo-1,3,8-triaza-spiro[4.5]dec-1-en-2-yl)-dodecanoic acid amide]	91
Cc1cc(N(C)C(N)=O)cc(C)c1/C=C/S(=O)(=O)N1CCC2(CC1)N=C(CCCCCCCCCCCCCC(N)=O)NC2=O [Compound 1175, 14-(8-{(E)-2-[2,6-dimethyl-4-(1-methyl-ureido)-phenyl]-ethenesulfonyl}-4-oxo-1,3,8-triaza-spiro[4.5]dec-1-en-2-yl)-tetradecanoic acid amide]	81
Cc1cc(N(C)C(N)=O)cc(C)c1CCS(=O)(=O)N1CCC2(CC1)N=C(CCCCCCCCCCCCCC(N)=O)NC2=O [Compound 1176, 14-(8-{2-[2,6-dimethyl-4-(1-methyl-ureido)-phenyl]-ethanesulfonyl}-4-oxo-1,3,8-triaza-spiro[4.5]dec-1-en-2-yl)-tetradecanoic acid amide]	82
Cc1cc2nc(N)oc2c(C)c1CCS(=O)(=O)N1CCC2(CC1)N=C(C1CCC(C)CC1)NC2=O (centres unmarked) [Compound 1178, 8-[2-(2-Amino-5,7-dimethyl-benzoxazol-6-yl)-ethanesulfonyl]-2-(4-methyl-cyclohexyl)-1,3,8-triaza-spiro[4.5]dec-1-en-4-one]	84
Cc1cc(C(=O)N2CCOC2=O)cc(C)c1CCS(=O)(=O)N1CCC2(CC1)N=C(C1CCCCC1)NC2=O [Compound 1179, 2-Cyclohexyl-8-{2-[2,6-dimethyl-4-(2-oxo-oxazolidine-3-carbonyl)-phenyl]-ethanesulfonyl}-1,3,8-triaza-spiro[4.5]dec-1-en-4-one]	65
CON(C)C(=O)c1cc(C)c(CCS(=O)(=O)N2CCC3(CC2)N=C(C2CCC(C)CC2)NC3=O)c(C)c1 (centres unmarked) [Compound 1180, N-methoxy-3,5,N-trimethyl-4-{2-[2-(4-methyl-cyclohexyl)-4-oxo-1,3,8-triaza-spiro[4.5]dec-1-ene-8-sulfonyl]-ethyl}-benzamide]	73
Cc1cc(C(=O)N2CCCO2)cc(C)c1CCS(=O)(=O)N1CCC2(CC1)N=C(C1CCC(CCC(F)(F)F)CC1)NC2=O (centres unmarked) [Compound 1181, 8-{2-[4-(isoxazolidine-2-carbonyl)-2,6-dimethyl-phenyl]-ethanesulfonyl}-2-[4-(3,3,3-trifluoro-propyl)-cyclohexyl]-1,3,8-triaza-spiro[4.5]dec-1-en-4-one]	98
